The source of these data is PMC8599855, “Detection of cancer stem cells by EMT-specific biomarker-based peptide ligands” (Scientific Reports, 2021).

The structures appear in SMILES notation. Read-outs that look alike come from different tables or passages of the source.

The nature of series [1]: Body weight of xenograft mice. The class given is in vivo, mouse. How it is done: (§1) All animal procedures were performed in accordance with the Guide for Care and Use of Laboratory Animals and National Yang-Ming University’s IACUC number was 1080110. Immunodeficient male mice (BALB/cAnNCrj-nu/nu, six weeks old, 20 gm) were provided by National Laboratory Animal Center (NLAC), NARLabs, Taiwan. Mice were group-housed (6 animals per cage) in individually ventilated cages (IVC) systems and had unlimited access to food and water. […] For establishment of xenografts, 2 × 10^6 SAS-EGFP-Fluc cells in 100 μL phosphate-buffered saline (PBS) were injected subcutaneously into the animal's right shoulder and 2 × 10^6 SAS-wt cells were injected into the left leg. Growth of the implanted tumors was monitored twice a week and tumor volumes were estimated from caliper measurements according to the following formula: tumor volume = (lengthÍwidth^2) Í0.523. When tumor size reached approximately 10 mm^3, the mice were randomized into four groups of five animals per group for the following treatments: (1) DMSO (1 ml/kg body weight), (2) Unc0642 (2.5 mg/kg body weight), (3) 2 Gy of radiation, (4) Unc0642 (2.5 mg/kg body weight) and 2 Gy of radiation. Mice were given Unc0642 (cat. SML1037, Sigma-Aldrich, St. Louis, MO) intraperitoneally (i.p) every two days for 3 times. […]

The test system of a further series is SAS-EGFP-Fluc tumor. Put plainly: SAS xenograft mouse model: tumor burden by bioluminescence, CD44 in excised tumors. The class given is in vivo. How it is done: Frozen tissues sections or cell culture slides were fixed in 4% paraformaldehyde, washed with PBS and permeated with 0.1% Triton X-100 for 5 min before blocking with 20% FBS for 10 min at 37 °C, followed by the incubation with anti-vimentin antibody (cat. MAB3400, Millipore, Bedford, MA, USA) at 4 °C overnight. Sections were washed three times in PBS, each wash lasting 5 min then stained with Cy5-conjugated goat anti- mouse IgG (1:1000, cat. ab6563, Abcam, Cambridge, UK) for 1 h in the dark. All slides were mounted with VECTASHIELD Mounting Medium with DAPI (cat. H-1200, Vector Labs, Burligame, CA, USA) and covered with cover glasses before visualization under a laser-scanning confocal microscope (Zeiss LSM 880, Jena, Germany) with Zen Blue software (ZEISS, Jena, Germany).
as §1, with “Í0.523.” for “Í0.523. When tumor size reached approximately 10 mm^3, the mice were randomized into four groups of five animals per group for the following treatments: (1) DMSO (1 ml/kg body weight), (2) Unc0642 (2.5 mg/kg body weight), (3) 2 Gy of radiation, (4) Unc0642 (2.5 mg/kg body weight) and 2 Gy of radiation. Mice were given Unc0642 (cat. SML1037, Sigma-Aldrich, St. Louis, MO) intraperitoneally (i.p) every two days for 3 times.”
Tumor-bearing mice were anaesthetized with 2% isoflurane and then injected D-luciferin (150 mg/kg body weight diluted in PBS) into the mouse peritoneum. […] The luminescent intensity at tumor sites was analyzed using living image software 3.2 (IVIS 50 Imaging System, Perkin Elmer, Waltham, MA, USA). Bioluminescent signal was recorded as mean photons/s/centimeter^2/steradian (photon/s/cm^2/sr).

The conditions of series [2]: UNC0642 5 mg/kg body weight, UBC xenograft model, any time point post-treatment; cited from earlier work. From the text:
In the current study, we successfully established a protocol for EMT induction via the combination of the G9a inhibitor and low-dose IR. G9a, mainly catalyzes histone H3K9 methylation, is shown to be overexpressed in many types of cancers, including gastric cancer, ovarian cancer, head and neck cancer, etc. Higher G9a expression levels represent higher methylation levels, thus leading to the transcriptional repression of tumor-suppressor genes and are also associated with poor prognosis in patients. Liu et al. explored that snail-induced EMT and repression of E-cadherin in head and neck sq ...

The test system of another series is SAS cells. Put plainly: AlamarBlue cell viability assay. Format: cell-based, human. As to conditions: for IC50: Homo sapiens, AlamarBlue. How it is done: Figure 3 In vitro induction of EMT and stemness with Unc0642/IR. (a) SAS cells were treated with indicated concentration of Unc0642 and Unc0642 + 2 Gy of radiation for 72 h respectively. Cell viability was assessed by AlamarBlue assay. All data were normalized to cells without treatment. Data are presented as mean ± SD. IC50 was calculated using SigmaPlot12 software. (b) Western blot analysis of CSC and EMT markers in SAS cells treated with different concentration of Unc 0642 (1.25 and 10 µM) and different dose of radiation (2 and 4 Gy) respectively. Internal control: b-actin. Right graph: the quantification of protein expression levels normalized against b-actin levels in each sample. *p < 0.05; **p < 0.01 by Student’s t-test. The blots were cropped from different parts of the same gel. The original blots and all replicates are presented in Supplementary Fig. 4.
SAS-wt, SAS-EGFP-Fluc and SAS-E2-crimson-P2A::ttksr39 cells were seeded in a 96-well cell culture plate at the density of 5x10^3 cells/well overnight and incubated with serial dilutions of Unc0642 (the concentration of Unc0642 was 0.625, 1.25, 2.5, […], 5, 10, 20, 40, 80 μM respectively in culture medium). Plates were then incubated 48 hours at 37 °C under 5% CO2. Relative cell viabilities were determined by a AlamarBlue assay. 10% v/v of AlamarBlue (Serotec, Oxon, UK) was added into each well and the well containing culture medium without cells served as negative controls. Absorbance was measured at 570 nm against a reference wavelength at 600 nm using a microplate reader (Tecan, Infinite 200 pro, Zürich, Switzerland) after incubation for 24 h at 37°C. Results were presented as the percentage of AlamarBlue reduction and were corrected to background values of negative controls. IC50 values were calculated from a log([drug]) versus normalized response curve fit using SigmaPlot12.
In general terms: Alamar Blue is a resazurin reagent that responds to reducing activity.

As to `COc1cc2c(NC3CCN(C(C)C)CC3)nc(N3CCC(F)(F)CC3)nc2cc1OCCCN1CCCC1` [Unc0642], the “Body weight versus DMSO control” value in series [1] (Unc0642 2.5 mg/kg i.p. alone) was “no difference”. The Body weight result in series [1] (combined Unc0642 2.5 mg/kg i.p. and 2 Gy IR, until end point, p < 0.001) is listed as “Drastic weight loss”. Besides, the “Tumor growth (Fluc signal)” value in the series on SAS-EGFP-Fluc tumor (Unc0642 2.5 mg/kg i.p. every two days for 3 times, alone, versus DMSO control, day 18) was “clear delay in tumor growth”; in the series with SAS-EGFP-Fluc tumor (Unc0642 2.5 mg/kg i.p. plus 2 Gy IR, every two days for 3 times), “no significant reduction was observed in Unc0642 plus IR treated mice until Day 21, but drastically dropped down on day 24”. In addition, the “CD44 expression in excised tumors” value with SAS-EGFP-Fluc tumor (Unc0642/IR alone or Unc0642 plus IR groups versus control, IF staining) is “higher CD44 expression”. In addition, the “Body weight versus vehicle-treated group” value in series [2] was “no significant weight changes”. In addition, the “Effect on cell proliferation at the peak dose” value in the series on SAS cells (1.25 μM Unc0642, single treatment or combined with IR, SAS cells) is recorded as “could induce cell proliferation”. For the same molecule, the IC50 came out at 12.1 µM in the series on SAS cells (SAS cells exposed to Unc0642 alone for 72 h, normalized to untreated cells, SigmaPlot12 fit, read-out: IC50 (50% inhibition concentration), cell viability) and 4.79 µM with SAS cells (SAS cells, Unc0642 combined with 4 Gy of IR, 72 h, read-out: IC50, cell viability, combined with IR).
